Measured values reported in patent US20240293416A1, “TREATMENT OF LIVER DISORDERS WITH A THR-ß AGONIST” (Terns Pharmaceuticals, Inc., priority 2021, published 2024).
Marks after values point to notes of the source that are not given here.

Test: Single ascending dose trial: adverse event and safety monitoring
Type: in vivo, human
Settings: fasted, n = 6
Description: A single-ascending dose clinical trial of Compound 1 (potassium salt) was performed.

## N#Cc1nn(-c2cc(Cl)c(Oc3n[nH]c(=O)c4ccccc34)c(Cl)c2)c(=O)[nH]c1=O [Compound 2]
Single 3 mg dose
  AEs by relationship to drug: Not related: 2 (33.3%)
  AEs by relationship to drug: Possibly related: 0
  AEs by relationship to drug: Related: 0
  AEs by relationship to drug: Unlikely related: 0
  Any AE, all CTCAE grades: 2 (33.3%)
  CTCAE Grade 1: 0
  CTCAE Grade 2: 0
  CTCAE Grade 3 or higher: 0
  Serious AEs: 0
Single 10 mg dose
  AEs by relationship to drug: Not related: 0
  AEs by relationship to drug: Possibly related: 0
  AEs by relationship to drug: Related: 0
  AEs by relationship to drug: Unlikely related: 0
  Any AE, all CTCAE grades: 0
  CTCAE Grade 1: 0
  CTCAE Grade 2: 0
  CTCAE Grade 3 or higher: 0
  Serious AEs: 0
Single 30 mg dose
  AEs by relationship to drug: Not related: 1 (16.7%)
  AEs by relationship to drug: Possibly related: 1 (16.7%)*
  AEs by relationship to drug: Related: 0
  AEs by relationship to drug: Unlikely related: 0
  Any AE, all CTCAE grades: 2 (33.3%)
  CTCAE Grade 1: 1 (16.7%)
  CTCAE Grade 2: 1 (16.7%)
  CTCAE Grade 3 or higher: 0
  Serious AEs: 0
Single 60 mg dose
  AEs by relationship to drug: Not related: 0
  AEs by relationship to drug: Possibly related: 0
  AEs by relationship to drug: Related: 0
  AEs by relationship to drug: Unlikely related: 0
  Any AE, all CTCAE grades: 0
  CTCAE Grade 1: 0
  CTCAE Grade 2: 0
  CTCAE Grade 3 or higher: 0
  Serious AEs: 0
